These results are taken from patent publication US9469606B2, “Wnt/b-catenin inhibitors and methods of use” (The General Hospital Corporation, priority 2011, dated 2016).

For data set [1], the system named is H23 human lung cancer cells. In words: Xenograft study, H23. The conditions noted are these: H23 xenograft in mice, 20 mg/kg daily i.p. The class given is in vivo. The procedure:
(§1) A, HCT116 colon cancer cells; B, HT115 colon cancer cells; and C, H23 human lung cancer cells. 20 mg/kg was injected daily via i.p.
(§2) See, for example: • Polakis P. Drugging Wnt signalling in cancer. EMBO J. 2012 May 22; 31(12):2737-46; Bialkowska A B, Yang V W. High-throughput screening strategies for targeted identification of therapeutic compounds in colorectal cancer. Future Oncol. 2012 March; 8(3):259-72; • Huang S M, Mishina Y M, Liu S, Cheung A, Stegmeier F, Michaud G A, Charlat O, Wiellette E, Zhang Y, Wiessner S. Hild M, Shi X, Wilson C J, Mickanin C. Myer V, Fazal A, Tomlinson R, Serluca F, Shao W, Cheng H, Shultz M, Rau C, Schirle M, Schlegl J, Ghidelli S, Fawell S, Lu C, Curtis D, Kirschner M W, Lengauer C. Finan P M, Tallarico J A, Bouwmeester T, Porter J A, Bauer A, Cong F. Tankyrase inhibition stabilizes axin and antagonizes Wnt signalling. Nature. 2009 Oct. 1; 461(7264):614-20; • Chen B, Dodge M E, Tang W, Lu J, Ma Z, Fan C W, Wei S, Hao W, Kilgore J, Williams N S, Roth M G, Amatruda J F. Chen C. Lum L. Small molecule-mediated disruption of Wnt-dependent signaling in tissue regeneration and cancer. […]

A further data set deals with mammary tumor. In words: Spontaneous mouse model of breast cancer (MMTV-Wnt1). The data set is classed as in vivo. The conditions noted are these: MMTV-Wnt1 tumor mice. The source says: Raj L, Ide T, Gurkar A U, Foley M, Schenone M, Li X, Tolliday N J, Golub T R, Carr S A, Shamji A F, Stern A M, Mandinova A, Schreiber S L, Lee S W. Selective killing of cancer cells by a small molecule targeting the stress response to ROS. Nature. 2011 Jul. 13; 475(7355):231-4; • Huang S, Li Y, Chen Y, Podsypanina K, Chamorro M, Olshen A B, Desai K V, Tann A, Petersen D, Green J E, Varmus H E. Changes in gene expression during the development of mammary tumors in MMTV-Wnt-1 transgenic mice. Genome Biol. 2005; 6(10):R84.

Data set [2] relates to β-catenin. Description: Western blotting and immunoprecipitation of β-catenin forms. The data set is classed as cell-based. An excerpt: (§3) See, for example: • Polakis P. Drugging Wnt signalling in cancer. EMBO J. 2012 May 22; 31(12):2737-46; Bialkowska A B, Yang V W. High-throughput screening strategies for targeted identification of therapeutic compounds in colorectal cancer. Future Oncol. 2012 March; 8(3):259-72; • Huang S M, Mishina Y M, Liu S, Cheung A, Stegmeier F, Michaud G A, Charlat O, Wiellette E, Zhang Y, Wiessner S. Hild M, Shi X, Wilson C J, Mickanin C. Myer V, Fazal A, Tomlinson R, Serluca F, Shao W, Cheng H, Shultz M, Rau C, Schirle M, Schlegl J, Ghidelli S, Fawell S, Lu C, Curtis D, Kirschner M W, Lengauer C. Finan P M, Tallarico J A, Bouwmeester T, Porter J A, Bauer A, Cong F. Tankyrase inhibition stabilizes axin and antagonizes Wnt signalling. Nature. 2009 Oct. 1; 461(7264):614-20; • Chen B, Dodge M E, Tang W, Lu J, Ma Z, Fan C W, Wei S, Hao W, Kilgore J, Williams N S, Roth M G, Amatruda J F. Chen C. Lum L. Small molecule-mediated disruption of Wnt-dependent signaling in tissue regeneration and cancer. Nat Chem. Biol. 2009 February; 5(2): 100-7; • Thorne C A, Hanson A J, Schneider J, Tahinci E, Orton D, Cselenyi C S, Jernigan K K, Meyers K C, Hang B I, Waterson A G, Kim K, Melancon B, Ghidu V P, Sulikowski G A, LaFleur B, Salic A, Lee L A, Miller D M 3rd, Lee E. Small-molecule inhibition of Wnt signaling through activation of casein kinase 1α. Nat Chem. Biol. 2010 November; 6(11):829-36; • Wei W, Chua M S. Grepper S, So S. Small molecule antagonists of Tcf4/beta-catenin complex inhibit the growth of HCC cells in vitro and in vivo. Int J Cancer. 2010 May 15; 126(10):2426-36; • Lepourcelet M, Chen Y N, France D S, Wang H, Crews P, Petersen F, Bruseo C, Wood A W, Shivdasani R A. Small-molecule antagonists of the oncogenic Tcf/beta-catenin protein complex. Cancer Cell. 2004 January; 5(1):91-102; • Grossmann T N, Yeh J T, Bowman B R, Chu Q, Moellering R E, Verdine G L. Inhibition of oncogenic Wnt signaling through direct targeting of β-catenin. Proc Natl Acad Sci USA. 2012 Oct. 15. […]

The subject of the next data set is β-catenin/TCF. Description: TCF/LEF reporter (TOP-Luciferase) assay in Wnt-dependent HCT116. The class given is cell-based, human. An excerpt: (§4) See, for example: • Polakis P. Drugging Wnt signalling in cancer. EMBO J. 2012 May 22; 31(12):2737-46; Bialkowska A B, Yang V W. High-throughput screening strategies for targeted identification of therapeutic compounds in colorectal cancer. Future Oncol. 2012 March; 8(3):259-72; • Huang S M, Mishina Y M, Liu S, Cheung A, Stegmeier F, Michaud G A, Charlat O, Wiellette E, Zhang Y, Wiessner S. Hild M, Shi X, Wilson C J, Mickanin C. Myer V, Fazal A, Tomlinson R, Serluca F, Shao W, Cheng H, Shultz M, Rau C, Schirle M, Schlegl J, Ghidelli S, Fawell S, Lu C, Curtis D, Kirschner M W, Lengauer C. Finan P M, Tallarico J A, Bouwmeester T, Porter J A, Bauer A, Cong F. Tankyrase inhibition stabilizes axin and antagonizes Wnt signalling. Nature. 2009 Oct. 1; 461(7264):614-20; • Chen B, Dodge M E, Tang W, Lu J, Ma Z, Fan C W, Wei S, Hao W, Kilgore J, Williams N S, Roth M G, Amatruda J F. Chen C. Lum L. Small molecule-mediated disruption of Wnt-dependent signaling in tissue regeneration and cancer. Nat Chem. Biol. 2009 February; 5(2): 100-7; • Thorne C A, Hanson A J, Schneider J, Tahinci E, Orton D, Cselenyi C S, Jernigan K K, Meyers K C, Hang B I, Waterson A G, Kim K, Melancon B, Ghidu V P, Sulikowski G A, LaFleur B, Salic A, Lee L A, Miller D M 3rd, Lee E. Small-molecule inhibition of Wnt signaling through activation of casein kinase 1α. […]

Data set [3] concerns HCT116 colon cancer cells. In words: Xenograft study, HCT116. The class given is in vivo. The conditions noted are these: HCT116 xenograft in mice, 20 mg/kg daily i.p. As to the method:
as §1, §2

The test system of data set [4] is Wnt/β-catenin-dependent cancer cells. In words: Colony formation. The note with it: a number of Wnt/β-catenin-dependent cancer cells. The class given is cell-based.
From the text: as §4

In data set [5] the test system is β-catenin/TCF-dependent genes. Description: Wnt/β-catenin target gene expression (real-time quantitative PCR, protein level). The data set is classed as cell-based. As to the method:
A. mRNA expression was measured by Real-time quantitative PCR.
as §3

Data set [6] relates to H460 human lung cancer cells. Description: Wnt/b-catenin-independent tumor growth, H460. The data set is classed as in vivo. The note with it: Wnt/b-catenin-independent H460 tumors in mice.
From the text: as §4

Data set [7] concerns beta-catenin target gene promoters. In words: ChIP-RT-PCR of β-catenin recruitment to target promoters in HCT116 cells. The class given is cell-based, human.
From the text: as §4

For data set [8], the system named is Wnt/β-catenin-dependent cancer cells. In words: Cytotoxicity in Wnt/β-catenin-dependent cancer cells. The data set is classed as cell-based.
From the text: as §4

The test system of data set [9] is Wnt/β-catenin-independent cancer cells. In words: Cytotoxicity in Wnt/β-catenin-independent cancer cells. The class given is cell-based.
From the text: as §4

Data set [10] concerns β-catenin. In words: Wnt-induced β-catenin accumulation. The data set is classed as cell-based.
From the text: as §4

Another data set has as its system normal cells. In words: Cytotoxicity in normal cells. The data set is classed as cell-based.
From the text: as §4

The subject of data set [11] is β-catenin. In words: β-catenin protein level and phosphorylation in HCT116 cells. The data set is classed as cell-based, human.
From the text: as §4

The test system of the next data set is HT115 colon cancer cells. In words: Xenograft study, HT115. The data set is classed as in vivo. The conditions noted are these: HT115 xenograft in mice, 20 mg/kg daily i.p. As to the method:
as §1, §2

For the compound `COC(=O)c1cccc(NS(=O)(=O)c2ccc(C)cc2)c1` [OC0021, methyl 3-{[(4-methylphenyl)sulfonyl]amino}benzoate], the anti-tumor activity entry (in [1]; in [3]; with HT115 colon cancer cells) was “anti-tumor activity” throughout. For the same compound, the “growth of mammary tumor” value with mammary tumor was “inhibits the growth of mammary tumor”. Also, the “ABC (Active form of b-catenin)” value in the data set with β-catenin [2] is “supresses ABC”. Moreover, the “expression of oncogene Myc target gene” value with β-catenin [2] was “inhibits the expression of oncogene Myc target gene”. Moreover, the “phosphorylated β-catenins (phospho-β-catenin-33/37/41; -41/45)” value in the data set with β-catenin [2] is “increases phosphorylated β-catenins”. Besides, in the data set with β-catenin/TCF, the TCF/LEF reporter activity entry was “inhibits the TCF/LEF reporter activity”. The “transcriptional activity of β-catenin/TCF” value with β-catenin/TCF (human colon cancer cells HCT116 with beta-catenin mutation) is recorded as “inhibits the transcriptional activity of β-catenin/TCF in a dose dependent manner”. In [4], the colony formation entry is “inhibits colony formation”. Moreover, in data set [5], the “protein level of endogenous β-catenin/TCF-dependent genes, Cyclin D1 and c-Myc” value is on record as “down regulates the protein level”. The “stability of Axin1 and Axin2” value in [5] is “enhances stability of Axin1 and Axin2”. Further, in [5] (Real-time quantitative PCR), the “Wnt/β-catenin-mediated gene transcription (mRNA expression of Myc, cyclin D1, Axin1 and 2)” value is reported as “modulates Wnt/β-catenin-mediated gene transcription”. Moreover, the tumor growth entry in [6] is on record as “does not affect”. Further, the “beta-catenin binding its target gene promoters” value in [7] is listed as “inhibits beta-catenin binding its target gene promoters”. The cytotoxic effect result is reported as “cytotoxic effect” in data set [8], “no significant cytotoxic” in [9] and “no significant cytotoxic” in the data set with normal cells. The “Wnt-induced β-catenin accumulation” value in the data set with β-catenin [10] is listed as “inhibits Wnt-induced β-catenin accumulation”. Also, the beta-catenin protein levels entry in the data set with β-catenin [11] (HCT116 cells) is reported as “decreases beta-catenin protein levels”. Moreover, in the data set with β-catenin [11] (HCT116 colon cancer cells), the “β-catenin degradation / phosphorylation at T41/S45” value is “promotes β-catenin degradation via increased β-catenin phosphorylation at T41/S45”.
